Experiment [1] concerns Miro1. The experiment is described as follows: Miro1 reduction after compound administration, Western blot. The experiment is classed as cell-based. Particulars: Western blot method.
In experiment [2] the test system is Miro1. The experiment in a line: Miro1 fibroblast assay (CCCP challenge, Miro1 Western blot). Format: cell-based. The conditions noted are these: skin fibroblasts from human Parkinson's disease patients, CCCP 40 μM 24 hr; read-out: Fibroblast IC50 (nM), Miro1 reduction. As for the experimental part: Fibroblast Challenge and Miro1 Western blot: Skin fibroblasts were obtained from human Parkinson's disease (PD) patients. CCCP was applied at 40 μM for 24 hr to fibroblasts before cells were lysed in RIPA lysis buffer with 0.25 mM PMSF and protease inhibitors. Lysates were cleared by centrifugation at 17,000×g for 10 min at 4° C., and supernatants were run in an SDS-PAGE for Western blotting. After electrophoresis, nitrocellulose membranes (Bio-Rad) were used in wet transfer. Transferred membranes were first blocked for 1 hr in phosphate-buffered saline (PBS) containing 5% fat-free milk and 0.1% tween-20, and then incubated with the following primary antibodies: rabbit anti-Miro1 (HPA010687, Sigma-Aldrich) at 1:1,000, mouse anti-ATP50 (AB14730, Abcam) at 1:5,000, mouse anti-β-Actin (A00702, Genscript) at 1:3,000, or rabbit anti-VDAC (4661S, Cell Signaling Technology) at 1:1,000 at 4° C. overnight in blocking buffer. West Dura ECL reagents (GE Healthcare) were used for ECL immunoblotting with HRP-conjugated goat anti-mouse or anti-rabbit, anti-mouse IgG (Jackson ImmunoResearch Laboratories) at 1:5-10,000. Membranes were exposed to UltraCruz autoradiography films (Santa Cruz Biotechnology) and developed on a Konica Minolta SRX-101A developer.
T-type calcium channel antagonists that could reduce Miro1 level were tested in the above PD fibroblast assay.
A general note: In western blotting, separated proteins are transferred to a membrane and probed.

Another experiment deals with mutant SNCA flies. The experiment is described as follows: Parkinson's disease fly model, locomotion (negative geotaxis Performance Index). Format: in vivo. The conditions noted are these: PD fly model (mutant SNCA flies), 2.5 μM in feed for 10 days. Here is the method:
The Parkinson's disease (PD) fly model was used as described in Hsieh C-H, Li L, Vanhauwaert R, Nguyen KT, Davis M D, Bu G, et al. Miro1 Marks Parkinson's Disease Subset and Miro1 Reducer Rescues Neuron Loss in Parkinson's Models. Cell Metab. 2019; 1131-1140. The average Performance Index (PI) (negative geotaxis) was evaluated. Briefly, adult flies were gently tapped to the base of a modified 25 ml climbing tube and their climbing progress was recorded after 45 sec. Three populations of flies were assessed, and for each population, flies were examined 3 times per experiment. The recorded values were used to calculate the average PI.
Feeding PD Flies with a Calcium Channel Blocker Rescues Locomotion Deficits. Benidipine was tested in a PD fly model (mutant SNCA flies) and the flies examined for their locomotion.

Another experiment concerns the target Cav3.2 (Homo sapiens (Human), UniProt O95180). The experiment in a line: In vitro patch clamp assay (SyncroPatch 384PE). Format: cell-based. Particulars: HEK293 cells. As for the experimental part:
Patch clamp assays were performed at Charles River. HEK293 cells were cultured in Dulbecco's Modified Eagle Medium/Nutrient Mixture F-12 (D-MEM/F-12) supplemented with 10% fetal bovine serum, 100 U/mL penicillin G sodium, 100 μg/mL streptomycin sulfate and 500 μg/mL G418. Before testing, cells in culture dishes were washed twice with Hank's Balanced Salt Solution, treated with Accutase™ and re-suspended in the culture media (˜20×10^6 cells in 20 mL). Cells in suspension were allowed to recover for 10 minutes in tissue culture incubator set at 37° C. in a humidified 95% air: 5% CO2 atmosphere. Immediately before use in the SyncroPatch 384PE system (SP384PE), the cells were washed twice in extracellular buffer (HB-PS) to remove the culture medium and re-suspended in 20 mL of HB-PS. Extracellular buffer was loaded into the wells of Nanion 384-well Patch Clamp (NPC-384, 4×M) chip (60 μL per well). Then, cell suspension was pipetted into the wells (20 μL per well) of the chip. After establishment of the whole-cell configuration, membrane currents were recorded using patch clamp amplifier in the SP384PE system.
A general note: The patch-clamp technique gives a direct electrical read-out from membranes.

Cav3.2, sequence (O95180 whole entry): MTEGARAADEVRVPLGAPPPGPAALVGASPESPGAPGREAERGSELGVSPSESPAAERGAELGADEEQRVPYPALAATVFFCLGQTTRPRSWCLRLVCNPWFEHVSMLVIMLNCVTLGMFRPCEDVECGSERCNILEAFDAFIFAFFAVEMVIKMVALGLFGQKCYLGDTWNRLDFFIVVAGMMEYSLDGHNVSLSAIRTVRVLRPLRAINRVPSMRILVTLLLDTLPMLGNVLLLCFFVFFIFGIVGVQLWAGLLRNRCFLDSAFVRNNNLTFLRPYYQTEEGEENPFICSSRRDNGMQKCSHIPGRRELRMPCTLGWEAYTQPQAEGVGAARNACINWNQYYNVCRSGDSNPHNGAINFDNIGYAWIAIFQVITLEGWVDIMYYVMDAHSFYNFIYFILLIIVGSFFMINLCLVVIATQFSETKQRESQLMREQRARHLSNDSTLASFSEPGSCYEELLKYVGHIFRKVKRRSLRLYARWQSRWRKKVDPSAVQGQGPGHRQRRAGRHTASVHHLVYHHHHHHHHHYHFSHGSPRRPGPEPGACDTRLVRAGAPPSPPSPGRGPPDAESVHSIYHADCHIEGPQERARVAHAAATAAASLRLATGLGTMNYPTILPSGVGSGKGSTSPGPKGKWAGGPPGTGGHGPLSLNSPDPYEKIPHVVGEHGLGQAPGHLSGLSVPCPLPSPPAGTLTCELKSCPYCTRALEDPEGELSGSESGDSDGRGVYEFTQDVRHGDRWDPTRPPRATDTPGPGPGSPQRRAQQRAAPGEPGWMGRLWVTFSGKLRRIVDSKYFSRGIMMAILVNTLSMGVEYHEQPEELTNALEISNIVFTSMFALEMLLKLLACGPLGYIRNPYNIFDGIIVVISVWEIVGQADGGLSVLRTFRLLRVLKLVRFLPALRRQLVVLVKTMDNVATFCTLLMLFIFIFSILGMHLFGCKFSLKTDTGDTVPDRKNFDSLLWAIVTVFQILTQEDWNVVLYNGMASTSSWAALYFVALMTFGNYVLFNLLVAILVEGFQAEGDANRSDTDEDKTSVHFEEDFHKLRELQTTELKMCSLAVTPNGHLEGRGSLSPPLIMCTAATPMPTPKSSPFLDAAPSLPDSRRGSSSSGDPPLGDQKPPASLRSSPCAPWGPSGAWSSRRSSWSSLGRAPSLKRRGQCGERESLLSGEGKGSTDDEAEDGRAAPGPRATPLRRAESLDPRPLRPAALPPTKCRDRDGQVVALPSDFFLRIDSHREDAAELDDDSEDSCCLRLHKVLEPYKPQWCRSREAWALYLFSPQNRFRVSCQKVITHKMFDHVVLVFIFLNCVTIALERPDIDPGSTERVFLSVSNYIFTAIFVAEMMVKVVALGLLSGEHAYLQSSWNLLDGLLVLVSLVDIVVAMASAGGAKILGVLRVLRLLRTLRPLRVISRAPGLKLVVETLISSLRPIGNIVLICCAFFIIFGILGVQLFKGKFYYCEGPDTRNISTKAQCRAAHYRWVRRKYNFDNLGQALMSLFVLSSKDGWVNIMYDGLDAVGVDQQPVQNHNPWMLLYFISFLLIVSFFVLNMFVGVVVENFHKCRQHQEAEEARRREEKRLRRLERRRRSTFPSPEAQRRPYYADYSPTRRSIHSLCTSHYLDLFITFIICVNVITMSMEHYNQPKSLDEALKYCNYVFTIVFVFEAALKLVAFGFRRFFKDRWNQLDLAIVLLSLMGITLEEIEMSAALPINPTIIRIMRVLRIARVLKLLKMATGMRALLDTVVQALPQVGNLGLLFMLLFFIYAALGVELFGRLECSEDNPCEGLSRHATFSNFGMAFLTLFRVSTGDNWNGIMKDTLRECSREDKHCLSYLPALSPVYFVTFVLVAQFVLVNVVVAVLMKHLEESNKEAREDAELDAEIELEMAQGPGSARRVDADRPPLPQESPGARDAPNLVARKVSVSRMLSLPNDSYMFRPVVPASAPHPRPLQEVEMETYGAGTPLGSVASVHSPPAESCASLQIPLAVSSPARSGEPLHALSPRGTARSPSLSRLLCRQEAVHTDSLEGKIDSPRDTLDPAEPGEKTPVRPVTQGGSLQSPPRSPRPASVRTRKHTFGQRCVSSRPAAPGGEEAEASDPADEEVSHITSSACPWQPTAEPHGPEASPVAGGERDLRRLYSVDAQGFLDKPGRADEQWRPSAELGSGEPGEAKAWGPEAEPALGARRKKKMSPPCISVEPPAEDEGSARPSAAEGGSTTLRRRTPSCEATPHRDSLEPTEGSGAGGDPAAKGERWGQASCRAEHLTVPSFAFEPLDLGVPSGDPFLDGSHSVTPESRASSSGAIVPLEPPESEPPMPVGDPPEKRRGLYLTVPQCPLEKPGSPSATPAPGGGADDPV

What is called IC50 is the midpoint of a concentration-inhibition curve. Take `O=C(c1cc(S(=O)(=O)Nc2ccccc2F)c(F)cc1Cl)N1CCN2CCC[C@@H]2C1` [ABT-639, 5-[(8aR)-3,4,6,7,8,8a-hexahydro-1H-pyrrolo[1,2-a]pyrazine-2-carbonyl]-4-chloro-2-fluoro-N-(2-fluorophenyl)benzenesulfonamide]: in the experiment on Miro1 [1], the “Miro1 Lowering” value was “YES”. In addition, the IC50 with Miro1 [2] was determined as 5410 nM.
The matching figures for `N#Cc1ccc(Cn2ccc(NC(=O)Cc3ccc(C4(C(F)(F)F)CC4)cc3)n2)nc1` [ACT-709478, N-(1-((5-cyanopyridin-2-yl)methyl)-1H-pyrazol-3-yl)-2-(4-(1-(trifluoromethyl)cyclopropyl)phenyl)acetamide]: “YES” and 3930 nM.
Take `COC(=O)C1=C(C)NC(C)=C(C(=O)OC2CCCN(Cc3ccccc3)C2)C1c1cccc([N+](=O)[O-])c1` (stereo not shown) [Benidipine, 1,4-dihydro-2,6-dimethyl-4-(3-nitrophenyl)-3,5-pyridine-dicarboxylic acid methyl 1-(phenylmethyl)-3-piperidinyl ester]: in the experiment with Miro1 [1], the “Miro1 Lowering” value is “YES”. Besides, the IC50 with Miro1 [2] turned out to be 2560 nM. In addition, the “locomotor decline / locomotion deficits” value in the experiment on mutant SNCA flies is “significantly improved locomotor decline”; in the experiment on mutant SNCA flies (listed as benidipine), “rescuing locomotor deficits”.
In turn, `Cc1c2ccc(CC(=O)N[C@H](C)c3cc4cnn(CC(F)(F)F)c4cn3)cc2nn1C` [Example 46, (R)-2-(2,3-dimethyl-2H-indazol-6-yl)-N-(1-(1-(2,2,2-trifluoroethyl)-1H-pyrazolo[3,4-c]pyridin-5-yl)ethyl)acetamide] displayed an IC50 at Cav3.2 of 806 nM.
The same measure, in the same setting: the figure for `C[C@@H](NC(=O)Cc1ccc(C2(C#N)CC2)cc1)c1cc2cnn(CC(F)(F)F)c2cn1` [Example 47, (R)-2-(4-(1-cyanocyclopropyl)phenyl)-N-(1-(1-(2,2,2-trifluoroethyl)-1H-pyrazolo[3,4-c]pyridin-5-yl)ethyl)acetamide] is 220 nM.
Still for that read-out and setting: the figure for `C[C@@H](NC(=O)Cc1ccc2c(c1)OC(F)(F)O2)c1cc2cnn(CC(F)(F)F)c2cn1` [Example 48, (R)-2-(2,2-difluorobenzo[d][1,3]dioxol-5-yl)-N-(1-(1-(2,2,2-trifluoroethyl)-1H-pyrazolo[3,4-c]pyridin-5-yl)ethyl)acetamide] is 260 nM; for `Cc1nn(C)c2ccc(CC(=O)N[C@H](C)c3cc4cnn(CC(F)(F)F)c4cn3)cc12` [Example 49, (R)-2-(1,3-dimethyl-1H-indazol-5-yl)-N-(1-(1-(2,2,2-trifluoroethyl)-1H-pyrazolo[3,4-c]pyridin-5-yl)ethyl)acetamide] it is 352 nM; for `C[C@@H](NC(=O)Cc1ccc2c(c1)c(C#N)cn2C)c1cc2cnn(CC(F)(F)F)c2cn1` [Example 50, (R)-2-(3-cyano-1-methyl-1H-indol-5-yl)-N-(1-(1-(2,2,2-trifluoroethyl)-1H-pyrazolo[3,4-c]pyridin-5-yl)ethyl)acetamide] it is 850 nM.
In the case of `C[C@@H](NC(=O)Cc1ccc(C(F)(F)F)cc1)c1cc2ccn(CC(F)(F)F)c2cn1` [Example 51, (R)—N-(1-(1-(2,2,2-trifluoroethyl)-1H-pyrrolo[2,3-c]pyridin-5-yl)ethyl)-2-(4-(trifluoromethyl)phenyl)acetamide], at Cav3.2, the midpoint of inhibition, the IC50, lay at 411 nM.
Take `C[C@@H](NC(=O)Cc1ccc(C(C)(F)F)c(C#N)c1)c1cc2cnn(CC(F)(F)F)c2cn1` [Example 52, (R)-2-(3-cyano-4-(1,1-difluoroethyl)phenyl)-N-(1-(1-(2,2,2-trifluoroethyl)-1H-pyrazolo[3,4-c]pyridin-5-yl)ethyl)acetamide]: the IC50 on Cav3.2 was 389 nM.
At Cav3.2, `Cc1nc2cc(CC(=O)N[C@H](C)c3cc4cnn(CC(F)(F)F)c4cn3)ccc2n1C` [Example 53, (R)-2-(1,2-dimethyl-1H-benzo[d]imidazol-5-yl)-N-(1-(1-(2,2,2-trifluoroethyl)-1H-pyrazolo[3,4-c]pyridin-5-yl)ethyl)acetamide] gave an IC50 of 919 nM.
Same read-out and setting: the figure for `Cc1c(C#N)c2cc(CC(=O)N[C@H](C)c3cc4cnn(CC(F)(F)F)c4cn3)ccc2n1C` [Example 54, (R)-2-(3-cyano-1,2-dimethyl-1H-indol-5-yl)-N-(1-(1-(2,2,2-trifluoroethyl)-1H-pyrazolo[3,4-c]pyridin-5-yl)ethyl)acetamide] is 529 nM.
On the same count and under the same terms, the figure for `[2H][C@](C)(NC(=O)Cc1ccc(C(F)(F)F)cc1)c1cc2cnn(CC(F)(F)F)c2cn1` [Example 55, (R)—N-(1-(1-(2,2,2-trifluoroethyl)-1H-pyrazolo[3,4-c]pyridin-5-yl)ethyl-1-d)-2-(4-(trifluoromethyl)phenyl)acetamide] is 335 nM.
Compound `CC(C)c1ccc(CC(=O)N[C@H](C)c2ccc(OCC(F)(F)F)cn2)cc1` [Example 56, 2-(4-isopropylphenyl)-N-[(1R)-1-(5-(2,2,2-trifluoroethoxy)pyridin-2-yl)ethyl]acetamide] came in with a half-maximal inhibitory concentration (IC50) at Cav3.2 of 37 nM.
Still for that read-out and setting: the figure for `CC(C)c1ccc(CC(=O)N[C@H](C)c2cc3c(cn2)OC(F)(F)O3)cc1` [Example 57, (R)—N-(1-(2,2-difluoro-[1,3]dioxolo[4,5-c]pyridin-6-yl)ethyl)-2-(4-isopropylphenyl)acetamide] is 868 nM; for `C[C@@H](NC(=O)Cc1ccc(C2(C(F)(F)F)CC2)nc1)c1ncc(Cl)s1` [Example 58, (R)—N-(1-(5-chlorothiazol-2-yl)ethyl)-2-(6-(1-(trifluoromethyl)cyclopropyl)pyridin-3-yl)acetamide] it is 4900 nM.
On to `C[C@@H](NC(=O)Cc1ccc(C2(C(F)(F)F)CC2)nc1)c1ccc(OCC(F)(F)F)cn1` [Example 59, (R)—N-(1-(5-(2,2,2-trifluoroethoxy)pyridin-2-yl)ethyl)-2-(6-(1-(trifluoromethyl)cyclopropyl)pyridin-3-yl)acetamide], for which the 50% inhibitory concentration (IC50) at Cav3.2 turned out to be 97 nM.
For `CC(C)c1ccc(CC(=O)N[C@H](C)c2ccc(OCC(F)(F)F)cn2)cc1` [MK-8998, (R)-2-(4-Isopropylphenyl)-N-(1-(5-(2,2,2-trifluoroethoxy)pyridin-2-yl)ethyl)acetamide], in the experiment with Miro1 [1], the “Miro1 Lowering” value is recorded as “YES”. The IC50 with Miro1 [2] was 693 nM.
As for `NS(=O)(=O)Cc1noc2ccccc12` [Zonisamide, 1,2-benzisoxazole-3-methanesulfonamide], the “Miro1 Lowering” value in the experiment with Miro1 [1] is “YES”.

The values are drawn from patent US20240190865A1, “T-TYPE CALCIUM CHANNEL ANTAGONISTS AND USES THEREOF” (THE BOARD OF TRUSTEES OF THE LELAND STANFORD JUNIOR …, priority 2021, published 2024).
